From patent publication US8969383B2, “Picolinamide derivatives as TTX-S blockers” (RaQualia Pharma Inc., priority 2009, dated 2015)

What was measured:
human Nav1.3 = molecular target: T1, human Nav1.3 (Homo sapiens, UniProt Q9NY46); experiment: FRET assay, human Nav1.3 channels expressed in HEK293 cells; format: cell-based; conditions: HEK293 cells expressing human NaV1.3, veratridine-opened channels
T1 construct: expressed in transfected cells; host or cells: HEK293
Method: (§1) The ability of the picolinamide derivatives of the formula (I) to inhibit the NaV1.3,Nav1.7 and Nav1.5 channels was measured by FRET assay and electrophysiology assay described below.
(§2) This screen is used to determine the effects of compounds on human Nav1.3, human Nav1.7, and human Nav1.5 channels, utilising the cell imaging technology by Hamamatsu Photonics's Functional Drug Screening System (FDSS). This experiment is based on FRET (Fluorescence Resonance Energy Transfer) and uses two fluorescent molecules. The first molecule, Oxonol (DiSBAC2(3)), is a highly fluorescent, negatively charged, hydrophobic ion that “senses” the trans-membrane electrical potential. In response to changes in membrane potential, it can rapidly redistribute between two binding sites on opposite sides of the plasma membrane. The voltage dependent redistribution is transduced into a ratiometric fluorescent readout via a second fluorescent molecule (Coumarin (CC2-DMPE)) that binds specifically to one face of the plasma membrane and functions as a FRET partner to the mobile voltage-sensing ion. To enable the assay to work, the channels have to be pharmacologically held in the open state. This is achieved by treating the cells with veratridine.
Each HEK293 cells expressing human NaV1.3 channels and HEK293 cells expressing human NaV1.5 channels were grown in T225 flasks, in a 5% CO2 humidified incubator to about 80% confluence. Media composition consisted of Dulbecco's Modified Eagle Medium (high glucose), 10% fetal calf serum (FCS), 100 units/ml Penicillin, 100 microgram/ml Streptomycin and 500 microgram/ml Geneticine.
(§3) • Seed each cell lines (1.5×10^4 cells/well) into poly-D-lysine coated 384-well plates prior to experimentation. • Incubate at 37° C. in 5% CO2 for 24 hours. • Wash each well with buffer #1 (140 mM NaCl, 4.5 mM KCl, 10 mM D-Glucose, 2 mM CaCl2, 1 mM MgCl2, 10 mM HEPES, pH 7.4 adjusted with NaOH) twice using plate washer. • Add 1st loading solution containing 5 μM CC2-DMPE and 0.02% Pluronic F-127 in buffer #1. • Incubate the plate at room temperature in dark for 0.5 hours. • Wash each well with buffer #2 (160 mM Choline, 10 mM D-Glucose, 0.1 mM CaCl2, 1 mM MgCl2, 10 mM HEPES, pH 7.4 adjusted with KOH) twice using plate washer. • Add 2nd loading solution containing 15 μM DiSBAC2(3), 0.5 mM VABSC-1, 10 μM veratridine and 0.004% Pluronic F-127 in buffer #2. • Add compound solutions into the assay plate and leave the plate for 30 minutes under the dark at room temperature. • Measure by FDSS.
(§4) The data was analyzed and reported as normalized ratios of intensities measured in the 465 nm and 575 nm channels. The process of calculating these ratios was performed as follows:
(§5) “FI465B”=the mean of fluorescence intensity as baseline (before Na+ ligand addition) at 465 nm
(§6) “FI575B”=the mean of fluorescence intensity as baseline (before Na+ ligand addition) at 575 nm
(§7) “FI465Max”=maximum fluorescence intensity at 465 nm after Na+ stimulation
(§8) “FI575 Min”=minimum fluorescence intensity at 575 nm after Na+ stimulation
(§9) This analysis was performed using a computerized specific program designed for FDSS generated data. Fluorescence ratio values were plotted using XLfit to determine an IC50 value for each compound.

human Nav1.7 = molecular target: T2, human Nav1.7 (Homo sapiens, UniProt Q15858); experiment: FRET assay, human Nav1.7 channels expressed in CHO cells; format: cell-based; conditions: CHO cells expressing human NaV1.7, veratridine-opened channels
T2 construct: expressed in transfected cells; host or cells: CHO
T2 sequence (Q15858 whole entry): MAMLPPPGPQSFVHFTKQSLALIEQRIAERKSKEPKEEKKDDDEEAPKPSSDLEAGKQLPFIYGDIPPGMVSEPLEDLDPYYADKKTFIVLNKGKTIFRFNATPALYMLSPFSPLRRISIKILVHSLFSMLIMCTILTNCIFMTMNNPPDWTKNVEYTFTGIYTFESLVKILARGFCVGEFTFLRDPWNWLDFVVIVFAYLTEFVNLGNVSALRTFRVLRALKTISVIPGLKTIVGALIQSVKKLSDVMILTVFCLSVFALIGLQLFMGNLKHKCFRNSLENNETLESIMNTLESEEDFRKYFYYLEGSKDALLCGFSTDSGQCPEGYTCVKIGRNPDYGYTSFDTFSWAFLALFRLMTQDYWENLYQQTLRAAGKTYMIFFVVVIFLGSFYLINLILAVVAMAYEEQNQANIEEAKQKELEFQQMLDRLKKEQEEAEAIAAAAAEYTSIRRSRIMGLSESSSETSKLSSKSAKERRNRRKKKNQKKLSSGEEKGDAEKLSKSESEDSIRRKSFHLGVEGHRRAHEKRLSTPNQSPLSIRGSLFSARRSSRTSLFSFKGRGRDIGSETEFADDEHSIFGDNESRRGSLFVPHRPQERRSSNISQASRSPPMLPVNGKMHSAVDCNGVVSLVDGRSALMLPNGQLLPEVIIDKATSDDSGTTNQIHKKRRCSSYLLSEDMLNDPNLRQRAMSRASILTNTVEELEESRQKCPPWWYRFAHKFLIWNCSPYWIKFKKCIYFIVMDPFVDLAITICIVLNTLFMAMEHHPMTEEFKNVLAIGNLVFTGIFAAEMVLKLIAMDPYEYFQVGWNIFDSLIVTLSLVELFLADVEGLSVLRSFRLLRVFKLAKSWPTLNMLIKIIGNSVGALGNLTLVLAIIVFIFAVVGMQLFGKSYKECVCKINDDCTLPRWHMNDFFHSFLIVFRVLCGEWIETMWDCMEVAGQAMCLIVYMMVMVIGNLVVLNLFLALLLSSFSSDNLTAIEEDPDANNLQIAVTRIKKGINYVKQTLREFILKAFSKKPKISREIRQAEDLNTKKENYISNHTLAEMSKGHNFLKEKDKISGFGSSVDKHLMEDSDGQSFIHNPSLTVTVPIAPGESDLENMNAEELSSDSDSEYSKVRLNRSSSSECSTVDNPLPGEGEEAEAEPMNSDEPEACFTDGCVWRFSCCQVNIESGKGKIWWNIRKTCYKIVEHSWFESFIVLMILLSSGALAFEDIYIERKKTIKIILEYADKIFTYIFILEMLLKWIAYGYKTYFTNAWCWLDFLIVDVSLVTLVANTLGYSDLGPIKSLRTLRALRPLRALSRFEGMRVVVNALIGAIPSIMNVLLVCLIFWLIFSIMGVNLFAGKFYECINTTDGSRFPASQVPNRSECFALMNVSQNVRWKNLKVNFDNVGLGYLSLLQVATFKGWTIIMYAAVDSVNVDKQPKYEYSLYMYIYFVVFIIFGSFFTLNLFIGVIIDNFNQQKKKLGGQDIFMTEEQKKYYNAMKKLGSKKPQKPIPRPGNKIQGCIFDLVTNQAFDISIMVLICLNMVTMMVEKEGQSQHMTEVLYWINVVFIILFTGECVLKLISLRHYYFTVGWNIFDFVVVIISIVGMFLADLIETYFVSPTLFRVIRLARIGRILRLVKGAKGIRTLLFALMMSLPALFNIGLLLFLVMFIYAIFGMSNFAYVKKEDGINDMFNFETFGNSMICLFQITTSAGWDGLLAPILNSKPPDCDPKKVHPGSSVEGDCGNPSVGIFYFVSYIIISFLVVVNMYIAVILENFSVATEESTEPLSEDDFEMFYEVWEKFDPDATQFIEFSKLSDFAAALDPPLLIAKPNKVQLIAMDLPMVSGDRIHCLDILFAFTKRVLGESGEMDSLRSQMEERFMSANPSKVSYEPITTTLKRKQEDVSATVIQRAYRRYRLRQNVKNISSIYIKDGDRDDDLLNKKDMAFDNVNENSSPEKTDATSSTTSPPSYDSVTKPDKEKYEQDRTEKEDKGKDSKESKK
Method: as §1, §2
CHO cells expressing human NaV1.7 channels were grown in T225 flasks, in a 5% CO 2 humidified incubator to about 80% confluence. Media composition consisted of HAM/F12 with Glutamax 1.10% fetal calf serum (FCS), 100 units/ml Penicillin and 100 microgram/ml Hygromycin.
as §3, §4, §5, §6, §7, §8, §9

T1 sequence (Q9NY46 whole entry): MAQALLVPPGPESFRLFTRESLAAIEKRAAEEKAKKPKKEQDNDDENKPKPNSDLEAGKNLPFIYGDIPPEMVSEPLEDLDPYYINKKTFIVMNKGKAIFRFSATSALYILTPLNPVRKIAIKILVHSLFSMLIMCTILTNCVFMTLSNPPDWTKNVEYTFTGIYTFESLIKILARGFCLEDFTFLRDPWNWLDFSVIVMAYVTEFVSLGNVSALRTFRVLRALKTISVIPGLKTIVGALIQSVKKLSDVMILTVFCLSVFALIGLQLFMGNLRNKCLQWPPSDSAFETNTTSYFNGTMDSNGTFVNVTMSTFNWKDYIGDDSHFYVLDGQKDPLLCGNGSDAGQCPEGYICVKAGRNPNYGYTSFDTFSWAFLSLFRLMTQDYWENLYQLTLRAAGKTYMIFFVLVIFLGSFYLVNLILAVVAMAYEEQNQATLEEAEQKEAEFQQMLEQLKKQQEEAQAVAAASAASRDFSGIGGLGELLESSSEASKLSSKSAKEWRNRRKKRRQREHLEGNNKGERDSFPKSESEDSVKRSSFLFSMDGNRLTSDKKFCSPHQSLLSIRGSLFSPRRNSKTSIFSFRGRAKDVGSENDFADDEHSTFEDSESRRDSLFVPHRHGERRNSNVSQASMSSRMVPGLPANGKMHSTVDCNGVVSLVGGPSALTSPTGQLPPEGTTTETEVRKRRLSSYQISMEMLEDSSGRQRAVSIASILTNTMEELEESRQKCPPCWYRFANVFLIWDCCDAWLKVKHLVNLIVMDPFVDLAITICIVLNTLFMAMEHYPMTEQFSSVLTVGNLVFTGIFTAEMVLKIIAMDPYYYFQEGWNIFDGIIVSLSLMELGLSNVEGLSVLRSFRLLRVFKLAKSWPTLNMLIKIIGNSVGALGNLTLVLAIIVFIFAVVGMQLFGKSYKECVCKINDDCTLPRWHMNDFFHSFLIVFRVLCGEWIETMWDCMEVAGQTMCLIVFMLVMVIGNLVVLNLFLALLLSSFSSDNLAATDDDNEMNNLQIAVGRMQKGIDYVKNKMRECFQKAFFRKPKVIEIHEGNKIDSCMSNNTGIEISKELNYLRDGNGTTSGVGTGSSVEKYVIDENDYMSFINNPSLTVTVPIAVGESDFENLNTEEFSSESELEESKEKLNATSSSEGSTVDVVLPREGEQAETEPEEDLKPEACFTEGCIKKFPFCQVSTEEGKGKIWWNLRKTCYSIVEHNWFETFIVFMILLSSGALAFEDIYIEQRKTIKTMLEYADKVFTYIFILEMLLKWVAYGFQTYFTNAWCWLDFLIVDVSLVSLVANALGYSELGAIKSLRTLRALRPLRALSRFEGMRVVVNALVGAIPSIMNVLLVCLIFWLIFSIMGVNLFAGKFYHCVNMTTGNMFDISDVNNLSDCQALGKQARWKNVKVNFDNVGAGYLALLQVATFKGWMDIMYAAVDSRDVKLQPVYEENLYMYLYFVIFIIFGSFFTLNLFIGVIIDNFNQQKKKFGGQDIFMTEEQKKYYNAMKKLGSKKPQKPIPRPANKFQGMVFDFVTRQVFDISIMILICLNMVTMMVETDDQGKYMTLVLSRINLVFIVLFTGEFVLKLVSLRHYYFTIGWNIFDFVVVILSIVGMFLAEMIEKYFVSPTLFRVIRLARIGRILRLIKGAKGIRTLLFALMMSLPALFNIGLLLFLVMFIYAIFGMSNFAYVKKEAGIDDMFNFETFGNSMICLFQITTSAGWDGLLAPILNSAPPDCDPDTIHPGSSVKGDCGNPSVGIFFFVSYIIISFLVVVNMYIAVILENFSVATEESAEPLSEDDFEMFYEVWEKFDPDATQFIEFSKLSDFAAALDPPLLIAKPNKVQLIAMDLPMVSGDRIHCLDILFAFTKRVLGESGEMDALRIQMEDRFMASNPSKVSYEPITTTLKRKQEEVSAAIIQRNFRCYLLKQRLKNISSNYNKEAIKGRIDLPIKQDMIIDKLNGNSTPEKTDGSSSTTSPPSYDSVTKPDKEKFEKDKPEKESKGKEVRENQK

| IC50 (human Nav1.3) [µM] | IC50 (human Nav1.7) [µM] | SMILES |
| --- | --- | --- |
| ≤ 0.5 | ≤ 0.5 | NC(=O)c1ncccc1OC[C@@H]1CCCN1C(=O)[C@H]1CC[C@@H](C(F)(F)F)CC1 [Example 2, 3-(((S)-1-(cis-4-(trifluoromethyl)cyclohexanecarbonyl)pyrrolidin-2-yl)methoxy)picolinamide] |
| ≤ 0.5 | ≤ 0.5 | NC(=O)c1ncccc1OC[C@H]1CCCN1C(=O)c1ccc(C(F)(F)F)cc1 [Example 5, (R)-3-((1-(4-(trifluoromethyl)benzoyl)pyrrolidin-2-yl)methoxy) picolinamide] |
| ≤ 0.5 | ≤ 0.5 | CC(C)(C)c1cc(C(=O)N2CCC[C@@H]2COc2cccnc2C(N)=O)no1 [Example 17, (R)-3-((1-(5-tert-butylisoxazole-3-carbonyl)pyrrolidin-2-yl)methoxy)picolinamide] |
| ≤ 0.5 | ≤ 0.5 | NC(=O)c1ncccc1OC[C@H]1CCCN1C(=O)COc1ccc(C(F)(F)F)cc1 [Example 18, (R)-3-((1-(2-(4-(trifluoromethyl)phenoxy)acetyl)pyrrolidin-2-yl)methoxy)picolinamide] |
| ≤ 0.5 | ≤ 0.5 | NC(=O)c1ncccc1OC[C@H]1CCCN1C(=O)c1ccc(OCC(F)(F)F)cc1 [Example 21, (R)-3-((1-(4-(2,2,2-trifluoroethoxy)benzoyl)pyrrolidin-2-yl)methoxy)picolinamide] |
| ≤ 0.5 | ≤ 0.5 | NC(=O)c1ncccc1OC[C@H]1CCCN1C(=O)c1ccc(OC(F)(F)F)cc1 [Example 25, (R)-3-((1-(4-(trifluoromethoxy)benzoyl)pyrrolidin-2-yl)methoxy) picolinamide] |
| ≤ 0.5 | ≤ 0.5 | NC(=O)c1ncc(Cl)cc1OC[C@H]1CCCN1C(=O)[C@H]1CC[C@@H](C(F)(F)F)CC1 [Example 29, 5-chloro-3-(((R)-1-(cis-4-(trifluoromethyl)cyclohexanecarbonyl)pyrrolidin-2-yl)methoxy)picolinamide] |
| ≤ 0.5 | ≤ 0.5 | NC(=O)c1ncc(Cl)cc1OC[C@H]1CCCN1C(=O)[C@H]1CC[C@H](C(F)(F)F)CC1 [Example 30, 5-chloro-3-(((R)-1-(trans-4-(trifluoromethyl)cyclohexanecarbonyl)pyrrolidin-2-yl)methoxy)picolinamide] |
| ≤ 0.5 | ≤ 0.5 | COc1cnc(C(N)=O)c(OC[C@H]2CCCN2C(=O)[C@H]2CC[C@H](C(F)(F)F)CC2)c1 [Example 31, 5-methoxy-3-(((R)-1-(trans-4-(trifluoromethyl)cyclohexanecarbonyl)pyrrolidin-2-yl)methoxy)picolinamide] |
| ≤ 0.5 | ≤ 0.5 | COC(=O)CNC(=O)c1ncccc1OC[C@H]1CCCN1C(=O)[C@H]1CC[C@H](C(F)(F)F)CC1 [Example 35, methyl 2-(3-(((R)-1-(trans-4-(trifluoromethyl)cyclohexanecarbonyl)pyrrolidin-2-yl)methoxy)picolinamido)acetate] |
| ≤ 0.5 | ≤ 0.5 | COCCNC(=O)c1ncccc1OC[C@H]1CCCN1C(=O)[C@H]1CC[C@H](C(F)(F)F)CC1 [Example 37, N-(2-methoxyethyl)-3-(((R)-1-(trans-4-(trifluoromethyl)cyclohexanecarbonyl)pyrrolidin-2-yl)methoxy)picolinamide] |
| ≤ 0.5 | ≤ 0.5 | O=C(NCC1(O)CCCCC1)c1ncccc1OC[C@H]1CCCN1C(=O)[C@H]1CC[C@H](C(F)(F)F)CC1 [Example 39, N-((1-hydroxycyclohexyl)methyl)-3-(((R)-1-(trans-4-(trifluoromethyl)cyclohexanecarbonyl)pyrrolidin-2-yl)methoxy)picolinamide] |
| ≤ 0.5 | ≤ 0.5 | O=C(NCc1ccccn1)c1ncccc1OC[C@H]1CCCN1C(=O)[C@H]1CC[C@H](C(F)(F)F)CC1 [Example 40, N-(pyridin-2-ylmethyl)-3-(((R)-1-(trans-4-(trifluoromethyl)cyclohexanecarbonyl)pyrrolidin-2-yl)methoxy)picolinamide] |
| ≤ 0.5 | ≤ 0.5 | O=C(NCc1ccccc1)c1ncccc1OC[C@H]1CCCN1C(=O)[C@H]1CC[C@H](C(F)(F)F)CC1 [Example 41, N-benzyl-3-(((R)-1-(trans-4-(trifluoromethyl)cyclohexanecarbonyl)pyrrolidin-2-yl)methoxy) picolinamide] |
| ≤ 0.5 | ≤ 0.5 | O=C(N[C@H](CO)c1ccccc1)c1ncccc1OC[C@H]1CCCN1C(=O)[C@H]1CC[C@H](C(F)(F)F)CC1 [Example 43, N-((S)-2-hydroxy-1-phenylethyl)-3-(((R)-1-(trans-4-(trifluoromethyl)cyclohexanecarbonyl)pyrrolidin-2-yl)methoxy) picolinamide] |
| ≤ 0.5 | ≤ 0.5 | O=C(Nc1ncns1)c1ncccc1OC[C@H]1CCCN1C(=O)[C@H]1CC[C@H](C(F)(F)F)CC1 [Example 47, N-(1,2,4-thiadiazol-5-yl)-3-(((R)-1-(trans-4-(trifluoromethyl)cyclohexanecarbonyl)pyrrolidin-2-yl)methoxy) picolinamide] |
| ≤ 0.5 | ≤ 0.5 | O=C(NC1CCOCC1)c1ncccc1OC[C@H]1CCCN1C(=O)[C@H]1CC[C@H](C(F)(F)F)CC1 [Example 49, N-(tetrahydro-2H-pyran-4-yl)-3-(((R)-1-(trans-4-(trifluoromethyl)cyclohexanecarbonyl)pyrrolidin-2-yl)methoxy) picolinamide] |
| ≤ 0.5 | ≤ 0.5 | O=C(Nc1ccon1)c1ncccc1OC[C@H]1CCCN1C(=O)[C@H]1CC[C@H](C(F)(F)F)CC1 [Example 54, N-(isoxazol-3-yl)-3-(((R)-1-(trans-4-(trifluoromethyl)cyclohexanecarbonyl)pyrrolidin-2-yl)methoxy)picolinamide] |
| ≤ 0.5 | ≤ 0.5 | O=C(Nc1ncco1)c1ncccc1OC[C@@H]1CCCN1C(=O)[C@H]1CC[C@@H](C(F)(F)F)CC1 [Example 62, N-(oxazol-2-yl)-3-(((S)-1-(cis-4-(trifluoromethyl)cyclohexanecarbonyl)pyrrolidin-2-yl)methoxy)picolinamide] |
| ≤ 0.5 | ≤ 0.5 | O=C(Nc1ncco1)c1ncccc1OC[C@H]1CCCN1C(=O)[C@H]1CC[C@@H](C(F)(F)F)CC1 [Example 63, N-(oxazol-2-yl)-3-(((R)-1-(cis-4-(trifluoromethyl)cyclohexanecarbonyl)pyrrolidin-2-yl)methoxy)picolinamide] |
| ≤ 0.5 | ≤ 0.5 | O=C(Nc1ccon1)c1ncccc1OC[C@H]1CCCN1C(=O)c1cc(C2CC2)on1 [Example 65] |
| ≤ 0.5 | ≤ 0.5 | O=C(Nc1ccon1)c1ncccc1OC[C@H]1CCCN1C(=O)CC1CCC(F)(F)CC1 [Example 66, (R)-3-((1-(2-(4,4-difluorocyclohexyl)acetyl)pyrrolidin-2-yl)methoxy)-N-(isoxazol-3-yl)picolinamide] |
| ≤ 0.5 | ≤ 0.5 | O=C(NCCN1CCOCC1)c1ncccc1OC[C@H]1CCCN1C(=O)c1cccc(C(F)(F)F)c1 [Example 68, (R)-N-(2-morpholinoethyl)-3-((1-(3-(trifluoromethyl)benzoyl)pyrrolidin-2-yl)methoxy) picolinamide] |
| ≤ 0.5 | ≤ 0.5 | O=C(NCCO)c1ncccc1OC[C@H]1CCCN1C(=O)c1cccc(C(F)(F)F)c1 [Example 69, (R)-N-(2-hydroxyethyl)-3-((1-(3-(trifluoromethyl)benzoyl)pyrrolidin-2-yl)methoxy) picolinamide] |
